The target in assay [1] is SAE1 (Homo sapiens (Human), UniProt Q9UBT2). In words: SAE high throughput biochemical (HTRF) assay. Conditions: 15 min preincubation; 100 µM ATP; read-out: 15 min preincubation HTRF IC50 (uM) Ave. The protocol:
Assay buffer was prepared [50 mM HEPES, pH 7.5, 0.1% BSA and 10 mM MgCl2] as was the Stop Buffer [100 mM HEPES, pH 7.5, 0.05% Tween20, and 410 mM KF]. The 2x Reaction Buffer [80 nM SUMO-GST, 80 nM UBC9-His, 200 µM ATP and diluted in Assay Buffer] and Antibody Reaction Mix [13.34 nM anti-GST XL665, 1.66 nM anti-His EuK and Diluted in Stop Buffer] were also prepared. Compounds were dissolved at 200x in DMSO in a 384-well plate. Serial dilutions were performed in DMSO for each compound, and then each concentration was diluted another 50-fold in Assay Buffer, to 4x the final concentration. 2.5 µL of each concentration was transferred into its own well in a 384-well plate. SAE1 was then diluted to 4x in Assay Buffer, and 2.5 µL of 4x SAE1 was mixed into each compound-containing well. After incubating for 15 minutes at room temperature, 5 µL of 2x Reaction Buffer was mixed into every well. Then after another 45 minutes at room temperature, 10 µL of Antibody Reaction Mix was added and mixed into every well. This plate was then read on an HTRF-compatible plate reader after 2 hours at room temperature, and again after sitting at room temperature overnight. [Final Component Concentrations: SAE1: 12.5 nM; SUMO-GST: 40 nM; UBC9-His: 40 nM; Anti-GST-XL665: 6.67 nM; Anti-His-EuK: 0.83 nM; and ATP: 100 µM ] Alternatively, the compounds are tested at a single concentration of 25 micromolar and the percent of control is measured.
(In TR-FRET formats the signal depends on donor and acceptor labels being close together.)

In assay [2] the test system is SUMO 2/3 conjugates (sumoylation levels) in HCT-116 cells. The experiment in a line: HCT-116 4 hour cell assay, immunoblot of SUMO 2/3 conjugates. The class given is cell-based. The conditions noted are these: 4 h treatment, Western blot, read-out: Cell HCT-116 Western SUMO 2/3 4 h IC50 (uM) Ave. As for the experimental part:
This protocol describes the procedures used to assess the effects of compounds of interest on sumoylation levels. Immunoblot of SUMO ⅔ conjugates are performed and IC50 curves are generated upon quantification of sumoylations bands. HCT-1 16 cells are seeded in a 12 well plate (500,000 cells/well). The following day the cells are treated with compounds of interest (resuspended in DMSO) for 4 hours (11 concentrations with a three-fold dilution; starting concentration 25 µM) Following 4 hours of incubation the cells are washed with ice cold PBS 1X and protein extraction is performed with RIPA buffer supplemented with phosphatases and proteases inhibitors, 25 mM of NEM and 50 units/mL of Benzonase . Samples undergo centrifugation at 13,000 RPM, 4° C., for 10 minutes and the supernatant is collected. Protein quantification is performed using BCA. Non-Reducing Laemmli Buffer is added to the samples. Samples are heated at 75° C. for 10 minutes, and are centrifuged for 3 minutes at 9000 RPM Nupage 4-12% Bis Tris gels and 1x MOPS buffer (Fisher Scientific) + 1x NuPAGE Antioxidant (Invitrogen) are used to perform the SDS-PAGE gel electrophoresis (20 to 40 µg of proteins are loaded in the gels). Proteins are then transferred to PVDF membranes and the level of total proteins are measured by staining with Revert Total Protein Stain and the fluorescent bands are acquired using the LI-COR FC (700 nm for 1 min) Membranes are blocked for 5 minutes with Bio-Rad Blocking Buffer and are subsequently incubated over night at 4° C. with Anti-Sumo 2-3 mAb (MBL #M114-3, 1:1000 in Bio-Rad Blocking Buffer, 0.2% Tween 20) Membranes are washed with 1X TBS-T (3 times for 5 minutes) and sumoylation is detected using Li-cor IRDye 800CW Goat anti-Mouse IgG secondary antibody (1:10,000 dilution) upon 1 hour of incubation in blocking buffer with 0.2% Tween 20 and 0.01% SDS. After the incubation, the membranes are washed with 1X TBS-T (3 times for 5 minutes). To visualize the fluorescent bands the membranes are scanned with LI-COR FC (700 nm for 1 min and […] for 2 mins) Sumoylation levels are quantified upon normalization with total protein levels, using the LI-COR Image Studio Lite 5.2 Software.

In assay [3] the target is SUMO activating enzyme (E1) (Homo sapiens (Human), UniProt Q9UBT2). In words: Inhibitory effect on activating enzyme (E1), 15 min preincubation (Table 2). It is filed as biochemical. The conditions noted are these: enzyme preincubated with compound for 15 minutes; read-out: E1 biological activity. As for the experimental part: Compounds are evaluated for their inhibitory effect on activating enzymes (E1) of ubiquitin, SUMO, Nedd8, Urm1, ISG15 or Atg7 using previously reported methods and protocols. One example is in: Allosteric inhibition of ubiquitin-like modifications by a class of inhibitor of SUMO-activating enzyme. Cell Chemical Biology, 26,1-11, 2019. PMID: 28051857. The enzyme was preincubated with the compounds for 15 minutes.
Chain of SUMO activating enzyme (E1) (Q9UBT2 whole entry): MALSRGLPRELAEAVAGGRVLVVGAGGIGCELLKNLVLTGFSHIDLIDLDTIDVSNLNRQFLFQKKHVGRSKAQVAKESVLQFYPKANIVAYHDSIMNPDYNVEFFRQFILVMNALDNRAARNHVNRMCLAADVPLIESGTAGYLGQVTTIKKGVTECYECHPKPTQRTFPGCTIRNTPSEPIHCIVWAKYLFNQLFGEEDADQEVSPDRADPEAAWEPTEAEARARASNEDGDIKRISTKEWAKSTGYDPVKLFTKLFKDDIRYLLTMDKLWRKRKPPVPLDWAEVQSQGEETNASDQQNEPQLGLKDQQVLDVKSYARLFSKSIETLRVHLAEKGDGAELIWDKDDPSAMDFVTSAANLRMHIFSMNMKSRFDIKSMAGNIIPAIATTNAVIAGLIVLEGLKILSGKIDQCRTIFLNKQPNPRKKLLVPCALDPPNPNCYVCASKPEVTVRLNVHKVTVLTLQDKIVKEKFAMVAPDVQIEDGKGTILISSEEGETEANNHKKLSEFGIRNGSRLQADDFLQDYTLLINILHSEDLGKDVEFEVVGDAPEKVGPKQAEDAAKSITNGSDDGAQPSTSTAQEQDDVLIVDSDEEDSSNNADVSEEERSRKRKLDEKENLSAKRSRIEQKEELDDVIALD
Chain of SUMO activating enzyme (E1) (Q9UBE0 whole entry partner): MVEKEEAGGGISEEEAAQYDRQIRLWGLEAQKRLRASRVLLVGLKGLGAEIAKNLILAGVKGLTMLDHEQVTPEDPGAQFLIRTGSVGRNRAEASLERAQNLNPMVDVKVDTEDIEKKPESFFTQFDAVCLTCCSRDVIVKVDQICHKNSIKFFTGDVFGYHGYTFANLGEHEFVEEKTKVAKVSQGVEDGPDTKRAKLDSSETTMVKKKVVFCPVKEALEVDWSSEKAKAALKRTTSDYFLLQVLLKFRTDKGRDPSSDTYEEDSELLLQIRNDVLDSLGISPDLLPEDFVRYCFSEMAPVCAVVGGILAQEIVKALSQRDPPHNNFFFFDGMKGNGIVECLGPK

The structures appear in SMILES notation.

Chain of SAE1 (Q9UBE0 whole entry partner): as above
Chain of SAE1 (Q9UBT2 whole entry): as the sequence (Q9UBT2 whole entry) above

Regarding `C=CC(=O)N1Cc2sc(Cl)cc2[C@H](c2ccccc2-c2cnn(CC)c2CC)C1` [Compound 360], the IC50 in assay [1] came to 4.33 µM; in assay [2], 13.6 µM.
With `C=CC(=O)N1Cc2sc(Cl)cc2C(c2ccccc2-c2cn(-c3ccncc3Cl)nc2C(F)(F)F)C1` (stereo not shown) [Compound 340], the IC50 in assay [1] was 0.93 µM.
As for `C=CC(=O)N1Cc2sc(-c3ccco3)cc2[C@H](c2ccccc2-c2cn(CC)nc2C(F)(F)F)C1` [Compound 324], the IC50 was 0.14 µM in assay [1] and 0.34 µM in assay [2].
With `C=CC(=O)N1Cc2sc(Cl)cc2[C@H](c2ccccc2-c2cn(C(C)(C)C(N)=O)nc2C(F)(F)F)C1` [Compound 312], the IC50 in assay [1] was 0.23 µM; in assay [3], < 10 µM; in assay [2] it was 0.28 µM.
In the case of `CCn1cc(-c2ccccc2[C@@H]2CN(C(=O)/C=C/CF)Cc3sc(Cl)cc32)c(C(F)(F)F)n1` [Compound 323], the IC50 in assay [1] worked out at 0.13 µM; in assay [2], 0.39 µM.
`C=CC(=O)N1Cc2sc(Cl)cc2[C@H](c2ccccc2-c2cn(C(C)C)nc2C(F)(F)F)C1` [Compound 255]: in assay [3], the IC50 was < 10 µM.
On to `C=CC(=O)N1Cc2sc(C(=C)C)cc2[C@H](c2ccccc2-c2cn(CC)nc2C(F)(F)F)C1` [Compound 318], for which the IC50 was 0.29 µM in assay [1] and 0.33 µM in assay [2].
